# Target: T1, hFXR (Homo sapiens, UniProt Q96RI1)
# T1 construct: expressed in transfected cells; host or cells: CV-1 cells
# T1 sequence (Q96RI1 1-486): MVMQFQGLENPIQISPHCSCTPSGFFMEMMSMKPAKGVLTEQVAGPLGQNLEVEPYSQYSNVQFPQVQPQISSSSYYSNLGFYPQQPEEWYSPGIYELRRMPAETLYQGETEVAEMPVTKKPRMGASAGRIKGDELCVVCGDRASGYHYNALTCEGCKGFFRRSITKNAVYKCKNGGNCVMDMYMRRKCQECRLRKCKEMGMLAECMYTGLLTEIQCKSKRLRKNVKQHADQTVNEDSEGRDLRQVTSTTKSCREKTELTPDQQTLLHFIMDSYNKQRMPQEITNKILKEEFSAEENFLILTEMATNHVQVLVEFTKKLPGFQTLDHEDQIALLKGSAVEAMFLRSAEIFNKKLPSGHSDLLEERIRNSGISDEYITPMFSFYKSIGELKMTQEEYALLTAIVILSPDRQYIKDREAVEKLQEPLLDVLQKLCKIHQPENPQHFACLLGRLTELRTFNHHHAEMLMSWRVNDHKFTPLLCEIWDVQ
# T1 sequence (P19793 1-462 partner): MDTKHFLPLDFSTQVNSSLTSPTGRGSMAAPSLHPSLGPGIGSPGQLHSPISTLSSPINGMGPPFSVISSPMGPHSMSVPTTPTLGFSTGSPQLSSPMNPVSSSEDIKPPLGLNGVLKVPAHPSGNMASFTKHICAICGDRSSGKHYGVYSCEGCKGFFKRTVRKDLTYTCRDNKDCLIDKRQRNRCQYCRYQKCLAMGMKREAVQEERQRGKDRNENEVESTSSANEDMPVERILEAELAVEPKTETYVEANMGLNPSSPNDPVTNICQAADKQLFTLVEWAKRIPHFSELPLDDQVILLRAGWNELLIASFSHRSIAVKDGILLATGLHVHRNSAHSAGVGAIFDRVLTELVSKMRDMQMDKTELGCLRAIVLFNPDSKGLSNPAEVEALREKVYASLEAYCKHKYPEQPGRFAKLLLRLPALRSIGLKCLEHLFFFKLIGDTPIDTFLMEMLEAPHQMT
# Assay: In Vitro FXR Assay (TK)
# Assay type: cell-based
# Conditions: CV-1 cells transfected with hFXR, hRXR, TK-ECRE-luc and pCMX-YFP; compounds incubated 18 hrs; luminescence
# Method: CV-1 cells were seeded at a density of 2,000,000 cells in a T175 flask with DMEM+10% charcoal double-stripped FBS and incubated at 37° C. in 5% CO2 for 18 h (O/N).
# After 18 h of incubation, the medium in the T175 flask was changed with fresh DMEM+10% charcoal super-stripped serum. In a polypropylene tube, 2500 μL OptiMEM (Life Technologies, Cat #31985-062) was combined with expression plasmids for hFXR, hRXR, TK-ECRE-luc and pCMX-YFP. The tube was then briefly vortexed and incubated at room temperature for 5 minutes. Transfection reagent (X-tremeGENE HP from Roche, Cat #06 366 236 001) was added to the OptiMEM/plasmid mixture vortexed and incubated at room temperature for 20 minutes. Following incubation, the transfection reagent/DNA mixture complex was added to cells in the T175 flask and the cells were incubated at 37° C. in 5% CO2 for 18 h (O/N).
# Compounds were serially diluted in DMSO and added to transfected CV-1 cells. The cells were then incubated for 18 hrs. The next day cells were lysed and examined for luminescence.
row,Compound,EC50 [nM]
1,COc1ccc2c(N(C[C@H]3CC[C@H](c4ccc(OC)c(C)c4)CC3)C(=O)CC(C)(C)C)nccc2c1 [Compound 1],≤ 1000
2,"COc1ccc([C@H]2CC[C@H](CN(C(=O)CC(C)(C)C)c3nccc4cc(CO)ccc34)CC2)cc1C [Compound 2, N-(6-(Hydroxymethyl)isoquinolin-1-yl)-N-((trans-4-(4-methoxy-3-methylphenyl)cyclohexyl)methyl)-3,3-dimethylbutanamide]",≤ 1000
3,"COc1ccc(-c2ccc(CN(C(=O)CC(C)(C)C)c3nccc4cc(CO)ccc34)cc2)cc1C [Compound 2.01, N-(6-(Hydroxymethyl)isoquinolin-1-yl)-N-((4′-methoxy-3′-methyl-[1,1′-biphenyl]-4-yl)methyl)-3,3-dimethylbutanamide]",≤ 1000
4,"COc1ccc(-c2ccc(CN(C(=O)CC(C)(C)C)c3nccc4cc(COCCO)ccc34)cc2)cc1C [Compound 2.02, N-(6-((2-Hydroxyethoxy)methyl)isoquinolin-1-yl)-N-((4′-methoxy-3′-methyl-[1,1′-biphenyl]-4-yl)methyl)-3,3-dimethylbutanamide]",≤ 1000
5,"COc1ccc([C@H]2CC[C@H](CN(C(=O)CC(C)(C)C)c3nccc4cc(C)ccc34)CC2)cc1C [Compound 3, N-((trans-4-(4-Methoxy-3-methylphenyl)cyclohexyl)methyl)-3,3-dimethyl-N-(6-methylisoquinolin-1-yl)butanamide]",≤ 1000
6,"COc1ccc(-c2ccc(CN(C(=O)CC(C)(C)C)c3nccc4cc(Br)ccc34)cc2)cc1C [Compound 4, N-(6-Bromoisoquinolin-1-yl)-N-((4′-methoxy-3′-methyl-[1,1′-biphenyl]-4-yl)methyl)-3,3-dimethylbutanamide]",≤ 1000
7,"COc1ccc(-c2ccc(CN(C(=O)CC(C)(C)C)c3cncc4ccccc34)cc2)cc1C [Compound 5, N-(Isoquinolin-4-yl)-N-((4′-methoxy-3′-methyl-[1,1′-biphenyl]-4-yl)methyl)-3,3-dimethylbutanamide]",1000 to 10000
8,"COc1ccc(-c2ccc(CN(C(=O)CC(C)(C)C)c3nccc4cc(N5CCC(O)C5)ccc34)cc2)cc1C (centres unmarked) [Compound 6, N-(6-(3-Hydroxypyrrolidin-1-yl)isoquinolin-1-yl)-N-((4′-methoxy-3′-methyl-[1,1′-biphenyl]-4-yl)methyl)-3,3-dimethylbutanamide]",≤ 1000

# Results, then the compound that gave them:
row,EC50 [nM],Compound
1,1000 to 10000,"COc1ccc(-c2ccc(CN(C(=O)CC(C)(C)C)c3ncnc4ccccc34)cc2)cc1C [Compound 4.01, N-((4′-Methoxy-3′-methyl-[1,1′-biphenyl]-4-yl)methyl)-3,3-dimethyl-N-(quinazolin-4-yl)butanamide]"
2,≤ 1000,"COc1ccc2c(N(Cc3ccc(-c4ccc(OC)c(C)c4)cc3)C(=O)CC(C)(C)C)nccc2c1 [Compound 4.02, N-((4′-Methoxy-3′-methyl-[1,1′-biphenyl]-4-yl)methyl)-N-(6-methoxyisoquinolin-1-yl)-3,3-dimethylbutanamide]"
3,1000 to 10000,"COc1ccc(-c2ccc(CN(C(=O)CC(C)(C)C)c3nccc4c3CCCC4)cc2)cc1C [Compound 4.03, N-((4′-Methoxy-3′-methyl-[1,1′-biphenyl]-4-yl)methyl)-3,3-dimethyl-N-(5,6,7,8-tetrahydroisoquinolin-1-yl)butanamide]"
4,≤ 1000,"COc1ccc(-c2ccc(CN(C(=O)CC(C)(C)C)c3nccc4ccsc34)cc2)cc1C [Compound 4.04, N-((4′-Methoxy-3′-methyl-[1,1′-biphenyl]-4-yl)methyl)-3,3-dimethyl-N-(thieno[2,3-c]pyridine-7-yl)butanamide]"
5,≤ 1000,"COc1ccc(-c2ccc(CN(C(=O)CC(C)(C)C)c3nccc4sccc34)cc2)cc1C [Compound 4.05, N-((4′-Methoxy-3′-methyl-[1,1′-biphenyl]-4-yl)methyl)-3,3-dimethyl-N-(thieno[3,2-c]pyridine-4-yl)butanamide]"
6,≤ 1000,"COc1ccc(-c2ccc(CN(C(=O)CC(C)(C)C)c3nccc4ccc(Br)cc34)cc2)cc1C [Compound 4.06, N-(7-Bromoisoquinolin-1-yl)-N-((4′-methoxy-3′-methyl-[1,1′-biphenyl]-4-yl)methyl)-3,3-dimethylbutanamide]"
7,> 10000,"COc1ccc(-c2ccc(CN(C(=O)CC(C)(C)C)c3nccc4c(Br)cccc34)cc2)cc1C [Compound 4.07, N-(5-Bromoisoquinolin-1-yl)-N-((4′-methoxy-3′-methyl-[1,1′-biphenyl]-4-yl)methyl)-3,3-dimethylbutanamide]"
8,> 10000,"COc1ccc(-c2ccc(CN(C(=O)CC(C)(C)C)c3ccnc4ccccc34)cc2)cc1C [Compound 4.08, N-((4′-Methoxy-3′-methyl-[1,1′-biphenyl]-4-yl)methyl)-3,3-dimethyl-N-(quinolin-4-yl)butanamide]"
9,≤ 1000,"COc1ccc(-c2ccc(CN(C(=O)CC(C)(C)C)c3nccc4cccnc34)cc2)cc1C [Compound 4.09, N-((4′-Methoxy-3′-methyl-[1,1′-biphenyl]-4-yl)methyl)-3,3-dimethyl-N-(1,7-naphthyridin-8-yl)butanamide]"
10,> 10000,"COc1ccc(-c2ccc(CN(C(=O)CC(C)(C)C)c3cccc4cnccc34)cc2)cc1C [Compound 5.01, N-(Isoquinolin-5-yl)-N-((4′-methoxy-3′-methyl-[1,1′-biphenyl]-4-yl)methyl)-3,3-dimethylbutanamide]"
11,> 10000,"COc1ccc(-c2ccc(CN(C(=O)CC(C)(C)C)c3cccc4ccncc34)cc2)cc1C [Compound 5.02, N-(Isoquinolin-8-yl)-N-((4′-methoxy-3′-methyl-[1,1′-biphenyl]-4-yl)methyl)-3,3-dimethylbutanamide]"
12,1000 to 10000,"COc1ccc(-c2ccc(CN(C(=O)CC(C)(C)C)c3nccc4cnccc34)cc2)cc1C [Compound 5.03, N-((4′-Methoxy-3′-methyl-[1,1′-biphenyl]-4-yl)methyl)-3,3-dimethyl-N-(2,6-naphthyridin-1-yl)butanamide]"
13,1000 to 10000,"COc1ccc(-c2ccc(CN(C(=O)CC(C)(C)C)c3nccc4ccncc34)cc2)cc1C [Compound 5.04, N-((4′-Methoxy-3′-methyl-[1,1′-biphenyl]-4-yl)methyl)-3,3-dimethyl-N-(2,7-naphthyridin-1-yl)butanamide]"
14,≤ 1000,"COc1ccc(-c2ccc(CN(C(=O)CC(C)(C)C)c3nccc4cc(N(C)CCO)ccc34)cc2)cc1C [Compound 6.01, N-(6-((2-Hydroxyethyl)(methyl)amino)iso-quinolin-1-yl)-N-((4′-methoxy-3′-methyl-[1,1′-biphenyl]-4-yl)methyl)-3,3-dimethylbutanamide]"
15,≤ 1000,"COc1ccc(-c2ccc(CN(C(=O)CC(C)(C)C)c3nccc4cc(N(C)C)ccc34)cc2)cc1C [Compound 6.1, N-(6-(Dimethylamino)isoquinolin-1-yl)-N-((4′-methoxy-3′-methyl-[1,1′-biphenyl]-4-yl)methyl)-3,3-dimethylbutanamide]"
16,≤ 1000,"COc1ccc(-c2ccc(CN(C(=O)CC(C)(C)C)c3nccc4cc(N5CCC(O)C5)cnc34)cc2)cc1C (centres unmarked) [Compound 6.2, N-(3-(3-Hydroxypyrrolidin-1-yl)-1,7-naphthyridin-8-yl)-N-((4′-methoxy-3′-methyl-[1,1′-biphenyl]-4-yl)methyl)-3,3-dimethylbutanamide]"
17,≤ 1000,"COc1ccc(-c2ccc(CN(C(=O)CC(C)(C)C)c3nccc4cc(NCCO)ccc34)cc2)cc1C [Compound 6.02, N-(6-((2-Hydroxyethyl)amino)isoquinolin-1-yl)-N-((4′-methoxy-3′-methyl-[1,1′-biphenyl]-4-yl)methyl)-3,3-dimethylbutanamide]"
18,≤ 1000,"COc1ccc(-c2ccc(CN(C(=O)CC(C)(C)C)c3nccc4cc(N5CC(O)C5)ccc34)cc2)cc1C [Compound 6.03, N-(6-(3-Hydroxyazetidin-1-yl)isoquinolin-1-yl)-N-((4′-methoxy-3′-methyl-[1,1′-biphenyl]-4-yl)methyl)-3,3-dimethylbutanamide]"

# Source: US20200131132A1, “FARNESOID X RECEPTOR AGONISTS AND USES THEREOF” (Metacrine, Inc., priority 2017, published 2020)
